Source: patent publication US20220289727A1, “ENZYME INHIBITORS” (KALVISTA PHARMACEUTICALS LIMITED, priority 2019, published 2022)

Tests used:
Human Factor XIIa = molecular target: T1, Human Factor XIIa (Homo sapiens, UniProt P00748); test: Determination of FXIIa inhibitory activity in vitro (fluorogenic substrate H-DPro-Phe-Arg-AFC); format: biochemical; conditions: 25° C., residual enzyme activity (initial rate)
T1 construct: Human Factor XIIa (Enzyme Research Laboratories) was incubated; purchased Enzyme Research Laboratories
T1 sequence (P00748 373-615 limits assumed): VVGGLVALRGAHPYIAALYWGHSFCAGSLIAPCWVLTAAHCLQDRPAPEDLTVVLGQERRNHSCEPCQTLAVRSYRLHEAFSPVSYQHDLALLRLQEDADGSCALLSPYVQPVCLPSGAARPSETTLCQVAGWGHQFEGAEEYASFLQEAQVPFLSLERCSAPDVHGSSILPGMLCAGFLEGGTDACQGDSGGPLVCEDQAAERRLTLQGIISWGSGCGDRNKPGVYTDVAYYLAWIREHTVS
T1 sequence (P00748 20-372 partner limits assumed): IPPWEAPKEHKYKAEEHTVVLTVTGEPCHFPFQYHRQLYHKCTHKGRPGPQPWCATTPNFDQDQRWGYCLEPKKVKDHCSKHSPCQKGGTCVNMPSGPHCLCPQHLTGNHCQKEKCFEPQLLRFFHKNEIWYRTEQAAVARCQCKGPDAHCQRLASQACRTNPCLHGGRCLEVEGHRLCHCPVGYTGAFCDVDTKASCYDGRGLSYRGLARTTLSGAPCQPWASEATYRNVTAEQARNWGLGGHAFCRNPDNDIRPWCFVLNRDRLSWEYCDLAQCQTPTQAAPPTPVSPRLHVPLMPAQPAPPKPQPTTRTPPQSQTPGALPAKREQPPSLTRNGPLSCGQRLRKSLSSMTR

Human FXIa = molecular target: T2, Human FXIa (Homo sapiens, UniProt P03951); test: Determination of FXIa inhibitory activity in vitro (fluorogenic substrate Z-Gly-Pro-Arg-AFC); format: biochemical; conditions: selectivity, 25° C., residual enzyme activity (initial rate)
T2 construct: Human FXIa (Enzyme Research Laboratories) was incubated; purchased Enzyme Research Laboratories
T2 sequence (P03951 388-625 limits assumed): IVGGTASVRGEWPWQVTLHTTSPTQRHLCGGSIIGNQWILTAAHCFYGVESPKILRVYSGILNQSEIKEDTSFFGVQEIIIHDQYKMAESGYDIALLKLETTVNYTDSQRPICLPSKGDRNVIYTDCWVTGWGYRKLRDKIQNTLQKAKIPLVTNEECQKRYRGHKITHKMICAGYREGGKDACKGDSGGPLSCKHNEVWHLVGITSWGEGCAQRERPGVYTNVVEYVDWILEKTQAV
T2 sequence (P03951 19-387 partner limits assumed): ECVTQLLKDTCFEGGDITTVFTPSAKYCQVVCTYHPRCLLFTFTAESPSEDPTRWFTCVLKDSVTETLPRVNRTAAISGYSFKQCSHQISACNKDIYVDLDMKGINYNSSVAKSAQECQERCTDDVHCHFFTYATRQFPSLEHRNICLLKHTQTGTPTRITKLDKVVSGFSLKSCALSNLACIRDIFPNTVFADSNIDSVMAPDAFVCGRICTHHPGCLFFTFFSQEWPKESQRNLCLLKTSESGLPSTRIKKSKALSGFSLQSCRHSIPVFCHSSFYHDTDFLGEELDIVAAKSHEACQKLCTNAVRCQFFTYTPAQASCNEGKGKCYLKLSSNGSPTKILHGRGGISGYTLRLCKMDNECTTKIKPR

IC50 (Human Factor XIIa)	IC50 (Human FXIa)	SMILES
< 1 µM	> 40 µM	CN1CCC(CCn2nc(C(=O)NCc3ccc4c(N)nccc4c3)cc2Cl)CC1 [Example 51.05, N-((1-Aminoisoquinolin-6-yl)methyl)-5-chloro-1-(2-(1-methylpiperidin-4-yl)ethyl)-1H-pyrazole-3-carboxamide]
1 to 3 µM	> 40 µM	COCc1c(C(=O)NCc2cnc3[nH]cc(Cl)c3c2)cnn1Cc1cc2c(cc1F)CCN(C)C2 [Example 69.01, N-((3-Chloro-1H-pyrrolo[2,3-b]pyridin-5-yl)methyl)-1-((6-fluoro-2-methyl-1,2,3,4-tetrahydroisoquinolin-7-yl)methyl)-5-(methoxymethyl)-1H-pyrazole-4-carboxamide]
10 to 40 µM	> 40 µM	CN1CCC(CNc2nccc3c2C(=O)N(Cc2ccc4c(N)nccc4c2)C3)CC1 [Example 82.01, 2-((1-Aminoisoquinolin-6-yl)methyl)-4-(((1-methylpiperidin-4-yl)methyl)amino)-1,2-dihydro-3H-pyrrolo[3,4-c]pyridin-3-one]
